The values that follow are results of earlier work, collected in patent US20030103955A1 (priority 2000, published 2003).

SMILES strings stand for the structures.

For data set [1] the following is noted: octanol/buffer phosphate, ph=7.4.
Data set [2] relates to cycloxygenase. The settings on record: with reduction of production of tissue prostaglandines PGF2 and PGE2.
In data set [3] the test system is arthritis induced by adjuvant. The settings on record: compared with aspirin.

On to `O=C(O)Cc1ccccc1Nc1c(Cl)cccc1Cl` [Diclofenac], for which the partition coefficient in data set [1] is 13.0. In addition, the activity of cycloxygenase entry in data set [2] was “inhibits the activity of cycloxygenase”. Also, the anti-inflammatory effect result in data set [3] is given as “higher than that of aspirin”.
